Series [1] addresses T1, MsbA (Escherichia coli, UniProt P60752).
T1 construct: full length, TEV-cleavable N-terminal His6 tag cut (intact native N-terminus MHND...), expressed in E. coli BL21-AI, delipidated, homodimer in C10E5
Briefly: cryoEM structure […] Å and native MS. Format: binding. To be noted: outward-facing, with KDL and copper(II), NBD site.

Series [2] concerns the target T1, MsbA. Briefly: biochemical. To be noted: first lipid; MsbA trapped with ADP and VO4, open outward-facing; read-out: KD1. Also noted: native mass spectrometry lipid titration of ADP-trapped open outward-facing MsbA, sequential lipid binding model. The protocol:
Lipids were prepared as previously described, in which lipids dissolved in chloroform were dried under nitrogen flow placed under vacuum overnight followed by dissolving in water. The concentration of MsbA was determined using a DC protein assay (BioRad) with bovine serum albumin as the standard. MsbA was incubated with lipids at varying concentrations and mixed with 200 mM ammonium acetate supplemented with 2x CMC lauryldimethylamine oxide (LDAO) at 1:1 volume ratio. Samples were incubated in the nano electrospray ionization source chamber for a minute to reach equilibrium prior to data acquisition. These samples analyzed on Orbitrap Exactive Plus EMR mass spectrometer (Thermo Scientific) operating at identical settings as described above. The mass spectra for each titration event were obtained in triplicate. The mass spectra were deconvoluted using UniDec[55] and the resulting peak intensities for apo and lipid-bound protein were determined. The relative abundance for each species was determined by dividing the peak intensity by the total intensity to convert to mole fraction for each independent experiment. For MsbA (P) binding the N^th lipid (Ln), we applied the following sequential lipid binding model: PLn−1+L⇔KAPLn where: KAn=PLn/[PLn−1]L To determine the impact of MsbA conformation on lipid binding affinity, analogous experiments were performed using MsbA trapped in an open, OF conformation with adenosine diphosphate (ADP) and [compound left out] (VO4). […] For example, in the presence of 0.4 μM of KDL, [compound left out]-trapped MsbA binds up to two lipids whereas the non-trapped protein binds only one KDL (Fig. 3b–c). […] The binding of POPC and POPE are reminiscent of that for MsbA partially loaded with copper(II). […] For MsbA with reduced copper(II) binding, additional 1 mM MgCl2 was added to all buffer and MsbA solution in the purification step using Ni-NTA beads. Copper(II) saturated MsbA was obtained by adding 20 uM copper (II) acetate then buffer exchanged using Bio-Spin column to remove excess copper(II). MsbA trapped by [compound left out] was obtained by adding ATP and MgCl2 to MsbA to reach the final concentration of 10 mM for both then incubating at room temperature for 10 min. After incubation, [compound left out] (pH 10) was added to reach final concentration of […] followed by incubation at 37 °C for 10 min. MsbA samples was buffer exchanged using Bio-Spin column to 200 mM ammonium acetate supplemented with 2x CMC C10E5 for native MS studies. To prepare MsbA samples for Cryo-EM studies, MsbA and trapped MsbA were preloaded with copper(II) then purified by Superdex 200 Increase 10/300 GL size exclusion column equilibrated with 200 mM NaCl, 20 mM HEPES and 2x CMC C10E5 without glycerol. […]

The target in series [3] is T1, MsbA. Briefly: biochemical. Particulars: first lipid; MsbA partially loaded with copper(II); read-out: KD1. Also noted: native mass spectrometry lipid titration, sequential lipid binding model, mole fractions of apo and lipid-bound MsbA. The method, then: Lipids were prepared as previously described, in which lipids dissolved in chloroform were dried under nitrogen flow placed under vacuum overnight followed by dissolving in water. The concentration of MsbA was determined using a DC protein assay (BioRad) with bovine serum albumin as the standard. MsbA was incubated with lipids at varying concentrations and mixed with 200 mM ammonium acetate supplemented with 2x CMC lauryldimethylamine oxide (LDAO) at 1:1 volume ratio. Samples were incubated in the nano electrospray ionization source chamber for a minute to reach equilibrium prior to data acquisition. These samples analyzed on Orbitrap Exactive Plus EMR mass spectrometer (Thermo Scientific) operating at identical settings as described above. The mass spectra for each titration event were obtained in triplicate. The mass spectra were deconvoluted using UniDec[55] and the resulting peak intensities for apo and lipid-bound protein were determined. The relative abundance for each species was determined by dividing the peak intensity by the total intensity to convert to mole fraction for each independent experiment. For MsbA (P) binding the N^th lipid (Ln), we applied the following sequential lipid binding model: PLn−1+L⇔KAPLn where: KAn=PLn/[PLn−1]L To better understand MsbA-lipid interactions, we determined equilibrium binding constants for MsbA binding to different lipids. For these studies, we selected 1,1′,2,2′-tetraoleoyl-cardiolipin (TOCDL, 72:4) or phosphatidic acid (PA), phosphatidylcholine (PC), phosphatidylethanolamine (PE), phosphatidylglycerol (PG), and phosphatidylserine (PS) containing the acyl chain composition, 1-palmitoyl-2-oleoyl (PO, 16:0-18:1). We also included 3-deoxy-D-manno-oct-2-ulosonic acid (Kdo)2-lipid A (KDL), an LPS precursor known to stimulate MsbA ATPase activity[22]–[24]. Except for PC, these lipids are found in E. coli[40]. MsbA partially and fully loaded with copper(II) was titrated with each lipid followed by recording their native mass spectra (Supplementary Figs. 3–6). The mole fractions of apo and lipid bound states of MsbA were extracted from the deconvoluted MS data and used to determine the equilibrium dissociation constant (KDN) for the Nth binding event (Supplementary Tables 4–5). […] The two tightest binding lipids for MsbA loaded with copper(II) were TOCDL (KD1 = 1.6 µM) and KDL (KD1 = 0.6 µM). POPG binding affinities were largely independent of the copper(II) bound state of MsbA. […] For MsbA with reduced copper(II) binding, additional 1 mM MgCl2 was added to all buffer and MsbA solution in the purification step using Ni-NTA beads. Copper(II) saturated MsbA was obtained by adding 20 uM copper (II) acetate then buffer exchanged using Bio-Spin column to remove excess copper(II). […]

Series [4] concerns the molecule itself. Briefly: native MS; MsbA in 200 mM ammonium acetate with 2x CMC C10E5; Orbitrap Exactive Plus EMR; partially or fully copper(II)-loaded, also trapped with ADP and vanadate.

Read-outs that look alike come from different tables or passages of the source.

T1 sequence (P60752 whole entry): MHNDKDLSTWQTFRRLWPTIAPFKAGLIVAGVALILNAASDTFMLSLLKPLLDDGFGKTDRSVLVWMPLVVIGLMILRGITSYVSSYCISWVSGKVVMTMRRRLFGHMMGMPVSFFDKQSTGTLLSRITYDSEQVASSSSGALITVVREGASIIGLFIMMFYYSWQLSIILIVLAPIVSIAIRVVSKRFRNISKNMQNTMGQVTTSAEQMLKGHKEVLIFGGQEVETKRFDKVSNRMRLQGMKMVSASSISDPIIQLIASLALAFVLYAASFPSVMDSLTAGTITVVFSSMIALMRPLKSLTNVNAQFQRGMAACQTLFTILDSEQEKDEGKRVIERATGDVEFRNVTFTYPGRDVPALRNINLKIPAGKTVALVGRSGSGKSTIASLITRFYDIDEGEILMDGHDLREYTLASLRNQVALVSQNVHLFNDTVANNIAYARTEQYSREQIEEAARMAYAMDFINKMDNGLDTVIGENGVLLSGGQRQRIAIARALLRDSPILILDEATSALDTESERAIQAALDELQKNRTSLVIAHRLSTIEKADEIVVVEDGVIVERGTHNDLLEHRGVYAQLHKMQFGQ

As for `Nc1ncnc2c1ncn2[C@@H]1O[C@H](COP(=O)(O)OP(=O)(O)O)[C@@H](O)[C@H]1O` [ADP], the “cryoEM structure 3.6 Å and native MS” value at MsbA [1] (vanadate-trapped) is “there is clear density for ADP·VO4 in the NBDs”.

For `CCCCCCCC/C=C\CCCCCCCC(=O)O[C@H](COC(=O)CCCCCCCCCCCCCCC)COP(=O)(O)O` [POPA], the results for the Kd at MsbA [2] and at MsbA [3] were 2.2 ± 0.01 µM and 14.7 ± 1.5 µM, respectively.

Turning to `CCCCCCCC/C=C\CCCCCCCC(=O)O[C@H](COC(=O)CCCCCCCCCCCCCCC)COP(=O)([O-])OCC[N+](C)(C)C` [POPC], the Kd at MsbA [2] is 15.1 ± 0.5 µM; at MsbA [3], 20.4 ± 1.4 µM.

As for `CCCCCCCC/C=C\CCCCCCCC(=O)O[C@H](COC(=O)CCCCCCCCCCCCCCC)COP(=O)(O)OCCN` [POPE], the Kd at MsbA [3] came out at 12.4 ± 0.7 µM.

In the case of `CCCCCCCC/C=C\CCCCCCCC(=O)O[C@H](COC(=O)CCCCCCCCCCCCCCC)COP(=O)(O)OCC(O)CO` (some centres unmarked) [POPG], the Kd on MsbA [2] stood at 2.6 ± 0.1 µM; at MsbA [3], 4.9 ± 0.4 µM.

For `CCCCCCCC/C=C\CCCCCCCC(=O)O[C@H](COC(=O)CCCCCCCCCCCCCCC)COP(=O)(O)OC[C@H](N)C(=O)O` [POPS], at MsbA [2], the Kd amounted to 2.3 ± 0.3 µM.

In the case of `[O]=[V]([OH])([OH])[OH]` [vanadate], the “cryoEM structure 3.6 Å and native MS” value on MsbA [1] (ADP-vanadate-trapped) is “there is clear density for ADP·VO4 in the NBDs”.

B1: MsbA (ATP-binding cassette transporter MsbA, Escherichia coli) (natural protein)
chain: HNDKDLSTWQTFRRLWPTIAPFKAGLIVAGVALILNAASDTFMLSLLKPLLDDGFGKTDRSVLVWMPLVVIGLMILRGITSYVSSYCISWVSGKVVMTMRRRLFGHMMGMPVSFFDKQSTGTLLSRITYDSEQVASSSSGALITVVREGASIIGLFIMMFYYSWQLSIILIVLAPIVSIAIRVVSKRFRNISKNMQNTMGQVTTSAEQMLKGHKEVLIFGGQEVETKRFDKVSNRMRLQGMKMVSASSISDPIIQLIASLALAFVLYAASFPSVMDSLTAGTITVVFSSMIALMRPLKSLTNVNAQFQRGMAACQTLFTILDSEQEKDEGKRVIERATGDVEFRNVTFTYPGRDVPALRNINLKIPAGKTVALVGRSGSGKSTIASLITRFYDIDEGEILMDGHDLREYTLASLRNQVALVSQNVHLFNDTVANNIAYARTEQYSREQIEEAARMAYAMDFINKMDNGLDTVIGENGVLLSGGQRQRIAIARALLRDSPILILDEATSALDTESERAIQAALDELQKNRTSLVIAHRLSTIEKADEIVVVEDGVIVERGTHNDLLEHRGVYAQLHKMQFGQ
notes: MsbA, Escherichia coli, UniProt P60752; msbA gene amplified from E. coli genomic DNA into pCDF-1b (pCDF-MsbA), N-terminal TEV-cleavable His6; Homodimer; co-purifies with copper(II), one site per subunit at the N-terminus (Met-His-Asn-Asp); For cryo-EM it was loaded with copper(II), apo or trapped with ADP-vanadate, with KDL; also called wild-type MsbA; the transporter; source: E. coli (DE3) …
For B1, the “stoichiometry N” value in series [4] is 2.

By stoichiometry N is commonly meant a count of units in the complex or per binding partner.

The record behind these values is paper PMC9701195, “Structural basis for lipid and copper regulation of the ABC transporter MsbA” (Nature Communications, 2022).
